The target in experiment [1] is EGFR wildtype (WT) (Homo sapiens, UniProt P00533). Description: Biochemical EGFR kinase inhibition assay (Lance Ultra TR-FRET), wildtype. In outline: (§1)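 Step 1: compound in kinase buffer, 0.003–10 μM. Step 2: kinase reaction 1 h at room temperature. Step 4: TR-FRET read at 615/665 nm; IC50 calculated.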
Experiment [2] concerns the target EGFR Del19/C797S (Homo sapiens, UniProt P00533, C797S/DEL746-750). The experiment in a line: Biochemical EGFR kinase inhibition assay (Lance Ultra TR-FRET), double mutant del19/C797S. The method, boiled down:
as §1

The target in experiment [3] is EGFR Del19/T790M/C797S (Homo sapiens, UniProt P00533, C797S/DEL746-750/T790M). Description: Biochemical EGFR kinase inhibition assay (Lance Ultra TR-FRET), triple mutant del19/T790M/C797S. The method, boiled down: as §1
Sequence of EGFR Del19/T790M/C797S (P00533 with tags, fused parts or gaps DEL746-750/T790M/C797S): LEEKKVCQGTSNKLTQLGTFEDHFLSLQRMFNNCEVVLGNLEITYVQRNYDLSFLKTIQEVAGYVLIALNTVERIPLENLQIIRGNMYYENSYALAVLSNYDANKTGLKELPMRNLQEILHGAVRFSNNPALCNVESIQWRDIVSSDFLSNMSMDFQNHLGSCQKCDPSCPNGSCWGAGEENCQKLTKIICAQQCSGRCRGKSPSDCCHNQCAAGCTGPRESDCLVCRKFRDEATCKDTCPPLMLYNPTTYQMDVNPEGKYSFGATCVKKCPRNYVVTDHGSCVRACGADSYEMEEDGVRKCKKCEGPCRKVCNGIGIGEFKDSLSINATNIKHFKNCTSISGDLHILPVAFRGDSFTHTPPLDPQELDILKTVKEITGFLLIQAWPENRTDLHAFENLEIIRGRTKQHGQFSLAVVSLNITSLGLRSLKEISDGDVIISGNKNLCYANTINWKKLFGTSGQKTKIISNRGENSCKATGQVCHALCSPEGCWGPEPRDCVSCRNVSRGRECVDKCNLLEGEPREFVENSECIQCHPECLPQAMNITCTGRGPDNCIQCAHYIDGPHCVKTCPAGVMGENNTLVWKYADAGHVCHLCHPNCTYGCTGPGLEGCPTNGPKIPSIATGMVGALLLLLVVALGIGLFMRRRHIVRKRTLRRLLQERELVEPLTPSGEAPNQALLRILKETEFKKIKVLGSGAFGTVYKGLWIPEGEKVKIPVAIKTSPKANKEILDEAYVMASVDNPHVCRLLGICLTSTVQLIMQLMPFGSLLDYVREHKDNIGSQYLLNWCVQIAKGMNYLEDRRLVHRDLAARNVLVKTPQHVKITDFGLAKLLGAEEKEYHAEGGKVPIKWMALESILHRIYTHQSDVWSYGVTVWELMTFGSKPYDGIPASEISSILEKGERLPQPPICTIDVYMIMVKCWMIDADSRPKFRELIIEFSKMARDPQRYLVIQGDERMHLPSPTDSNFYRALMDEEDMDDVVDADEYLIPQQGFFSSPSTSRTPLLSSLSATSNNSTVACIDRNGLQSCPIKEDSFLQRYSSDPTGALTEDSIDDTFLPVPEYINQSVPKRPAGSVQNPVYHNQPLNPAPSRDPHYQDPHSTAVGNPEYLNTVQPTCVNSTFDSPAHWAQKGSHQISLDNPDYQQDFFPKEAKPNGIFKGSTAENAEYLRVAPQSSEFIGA
Experiment [4] has as its target EGFR L858R/T790M/C797S (Homo sapiens, UniProt P00533, C797S/L858R/T790M). Description: Biochemical EGFR kinase inhibition assay (Lance Ultra TR-FRET), triple mutant L858R/T790M/C797S. The method, boiled down: as §1
Experiment [5] deals with EGFR L858R/C797S (Homo sapiens, UniProt P00533, C797S/L858R). The experiment in a line: Biochemical EGFR kinase inhibition assay (Lance Ultra TR-FRET), double mutant L858R/C797S. The method, boiled down:
as §1

Setting [6] is: ATP at Km, read-out: IC50 WT (nM), Km ATP.
[7] abbreviates: ATP at Km, read-out: IC50 Del19/C797S (nM), Km ATP.
The mark [8] stands for this setting: IC50 Del19/C797S (nM), 100 μM ATP.
Where [9] appears, read: ATP at Km, read-out: IC50 Del19/T790M/C797S (nM), Km ATP.
Where [10] appears, read: IC50 Del19/T790M/C797S (nM), 100 μM ATP.
[11] abbreviates: ATP at Km, read-out: IC50 L858R/T790M/C797S (nM), Km ATP.
Setting [12] is: IC50 L858R/T790M/C797S (nM), 100 μM ATP.
The mark [13] stands for this setting: ATP at Km, read-out: IC50 L858R/C797S (nM), Km ATP.
Where [14] appears, read: IC50 L858R/C797S (nM), 100 μM ATP.
The mark [15] stands for this setting: Km ATP, read-out: IC50 L858R/C797S (nM) Km ATP.
Where [16] appears, read: Km ATP, read-out: IC50 Del19/T790M/C797S (nM), Km ATP.
The mark [17] stands for this setting: Km ATP, read-out: IC50 L858R/T790M/C797S (nM), Km ATP.
Where [18] appears, read: Km ATP, read-out: IC50 WT (nM), Km ATP.
[19] abbreviates: Km ATP, read-out: IC50 Del19/C797S (nM), Km ATP.
Setting [20] is: Km ATP, read-out: IC50 L858R/C797S (nM), Km ATP.

Where two headings read alike, the source gives them in different places.

Sequence of EGFR Del19/C797S (P00533 with tags, fused parts or gaps DEL746-750/C797S): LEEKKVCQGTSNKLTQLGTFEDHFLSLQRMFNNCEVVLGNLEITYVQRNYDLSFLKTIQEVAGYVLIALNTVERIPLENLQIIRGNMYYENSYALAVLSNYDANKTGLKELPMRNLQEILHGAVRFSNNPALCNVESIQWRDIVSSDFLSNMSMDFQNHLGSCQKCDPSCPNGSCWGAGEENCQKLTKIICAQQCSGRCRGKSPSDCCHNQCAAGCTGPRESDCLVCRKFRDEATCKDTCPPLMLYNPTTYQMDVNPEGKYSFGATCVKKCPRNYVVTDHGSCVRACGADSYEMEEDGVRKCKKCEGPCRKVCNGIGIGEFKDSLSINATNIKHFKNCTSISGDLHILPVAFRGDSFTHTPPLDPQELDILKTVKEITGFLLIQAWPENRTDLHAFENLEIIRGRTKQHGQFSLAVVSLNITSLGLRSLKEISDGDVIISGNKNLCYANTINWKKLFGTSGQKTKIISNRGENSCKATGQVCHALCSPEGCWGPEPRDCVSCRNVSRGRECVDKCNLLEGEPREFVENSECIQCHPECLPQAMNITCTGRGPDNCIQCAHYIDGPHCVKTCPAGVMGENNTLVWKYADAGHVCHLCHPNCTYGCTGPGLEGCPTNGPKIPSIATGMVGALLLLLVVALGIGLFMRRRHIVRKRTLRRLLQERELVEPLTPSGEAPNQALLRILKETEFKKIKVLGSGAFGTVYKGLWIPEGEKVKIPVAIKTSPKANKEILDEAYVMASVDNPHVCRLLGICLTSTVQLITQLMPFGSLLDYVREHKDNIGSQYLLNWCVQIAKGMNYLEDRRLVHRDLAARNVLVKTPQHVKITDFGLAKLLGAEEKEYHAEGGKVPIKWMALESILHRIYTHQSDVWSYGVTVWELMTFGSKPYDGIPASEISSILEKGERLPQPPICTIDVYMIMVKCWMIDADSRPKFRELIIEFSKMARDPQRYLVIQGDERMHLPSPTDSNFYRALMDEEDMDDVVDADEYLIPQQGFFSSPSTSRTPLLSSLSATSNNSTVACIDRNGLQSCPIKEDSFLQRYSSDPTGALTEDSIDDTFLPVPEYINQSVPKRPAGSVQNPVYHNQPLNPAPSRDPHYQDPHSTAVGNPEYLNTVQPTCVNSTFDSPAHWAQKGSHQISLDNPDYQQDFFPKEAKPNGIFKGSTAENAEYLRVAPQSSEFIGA
Sequence of EGFR L858R/T790M/C797S (P00533 25-1210 T790M/C797S/L858R): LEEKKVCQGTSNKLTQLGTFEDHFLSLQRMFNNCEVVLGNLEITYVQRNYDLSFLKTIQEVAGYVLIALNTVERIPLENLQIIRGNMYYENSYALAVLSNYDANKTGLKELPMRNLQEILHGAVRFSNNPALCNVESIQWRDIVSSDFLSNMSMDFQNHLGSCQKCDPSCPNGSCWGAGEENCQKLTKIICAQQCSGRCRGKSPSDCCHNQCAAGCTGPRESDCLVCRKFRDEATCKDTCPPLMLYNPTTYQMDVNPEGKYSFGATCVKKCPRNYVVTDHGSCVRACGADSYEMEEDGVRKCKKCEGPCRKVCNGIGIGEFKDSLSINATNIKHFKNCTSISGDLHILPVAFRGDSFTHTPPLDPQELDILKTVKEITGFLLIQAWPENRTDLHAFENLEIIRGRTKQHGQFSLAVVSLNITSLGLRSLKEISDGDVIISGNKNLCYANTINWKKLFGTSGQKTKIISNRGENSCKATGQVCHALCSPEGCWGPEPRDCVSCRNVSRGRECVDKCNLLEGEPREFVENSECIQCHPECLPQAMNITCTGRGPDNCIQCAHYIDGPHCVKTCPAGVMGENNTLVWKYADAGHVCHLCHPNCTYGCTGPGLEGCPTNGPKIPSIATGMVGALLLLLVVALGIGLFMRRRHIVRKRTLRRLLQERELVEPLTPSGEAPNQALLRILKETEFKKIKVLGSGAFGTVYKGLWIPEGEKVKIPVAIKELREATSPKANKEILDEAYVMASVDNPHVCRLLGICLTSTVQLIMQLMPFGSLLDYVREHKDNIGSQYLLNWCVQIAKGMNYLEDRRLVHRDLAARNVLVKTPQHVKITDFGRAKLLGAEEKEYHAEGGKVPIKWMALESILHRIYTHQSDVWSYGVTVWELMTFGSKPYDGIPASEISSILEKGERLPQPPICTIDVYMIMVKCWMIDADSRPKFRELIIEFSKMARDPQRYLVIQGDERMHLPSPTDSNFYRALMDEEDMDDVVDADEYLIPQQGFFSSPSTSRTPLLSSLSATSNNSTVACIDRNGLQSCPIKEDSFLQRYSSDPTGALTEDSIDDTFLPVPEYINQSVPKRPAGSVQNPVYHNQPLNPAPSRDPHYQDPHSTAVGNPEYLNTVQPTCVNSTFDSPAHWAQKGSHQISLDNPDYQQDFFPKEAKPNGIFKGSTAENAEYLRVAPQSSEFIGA
Sequence of EGFR L858R/C797S (P00533 25-1210 C797S/L858R): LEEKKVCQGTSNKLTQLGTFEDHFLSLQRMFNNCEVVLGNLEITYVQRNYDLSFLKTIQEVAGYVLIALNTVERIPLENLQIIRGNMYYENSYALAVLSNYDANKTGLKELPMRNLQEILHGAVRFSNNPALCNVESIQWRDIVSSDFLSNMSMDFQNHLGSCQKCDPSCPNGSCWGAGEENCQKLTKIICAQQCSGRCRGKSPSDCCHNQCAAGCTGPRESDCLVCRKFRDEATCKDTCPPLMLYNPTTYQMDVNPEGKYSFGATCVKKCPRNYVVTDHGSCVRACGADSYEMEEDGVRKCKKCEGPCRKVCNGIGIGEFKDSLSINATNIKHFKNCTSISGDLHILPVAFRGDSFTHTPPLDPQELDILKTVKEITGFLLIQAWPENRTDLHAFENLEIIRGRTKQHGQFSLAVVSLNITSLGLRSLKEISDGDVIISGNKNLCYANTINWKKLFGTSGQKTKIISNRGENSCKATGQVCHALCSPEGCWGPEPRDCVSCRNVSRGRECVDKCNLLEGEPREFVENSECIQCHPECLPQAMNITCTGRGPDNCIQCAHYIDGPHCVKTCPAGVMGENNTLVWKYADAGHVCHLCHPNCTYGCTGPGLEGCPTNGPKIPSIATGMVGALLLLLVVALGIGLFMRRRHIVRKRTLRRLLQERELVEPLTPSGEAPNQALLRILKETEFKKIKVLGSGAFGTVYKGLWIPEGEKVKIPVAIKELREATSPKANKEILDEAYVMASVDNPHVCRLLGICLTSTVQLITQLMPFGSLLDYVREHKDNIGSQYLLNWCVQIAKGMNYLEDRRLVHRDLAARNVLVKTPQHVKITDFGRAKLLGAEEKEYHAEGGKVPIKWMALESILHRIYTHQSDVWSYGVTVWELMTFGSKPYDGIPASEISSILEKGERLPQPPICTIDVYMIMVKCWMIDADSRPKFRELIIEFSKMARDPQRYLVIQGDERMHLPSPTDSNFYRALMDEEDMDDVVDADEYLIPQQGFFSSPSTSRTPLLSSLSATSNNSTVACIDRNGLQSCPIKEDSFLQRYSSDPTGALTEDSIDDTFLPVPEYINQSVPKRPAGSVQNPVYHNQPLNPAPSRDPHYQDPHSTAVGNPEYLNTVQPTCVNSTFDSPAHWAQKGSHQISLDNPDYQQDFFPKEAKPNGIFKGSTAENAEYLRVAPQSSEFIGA

On to `Cn1cc(C#Cc2cnc(Nc3ccnc(Nc4ccccc4S(C)(=O)=O)n3)cc2N2CCC(C)(CO)CC2)cn1` [Example 270, (4-Methyl-1-(5-((1-methyl-1H-pyrazol-4-yl)ethynyl)-2-((2-((2-(methylsulfonyl)phenyl)amino)pyrimidin-4-yl)amino)pyridin-4-yl)piperidin-4-yl)methanol], for which the IC50 in experiment [1] (setting [6]) is 111 nM; in experiment [1] (IC50 WT (nM), 100 μM ATP), greater than 10000 nM; in experiment [2] (setting [7]) it was 27.9 nM; in experiment [2] (setting [8]) it was 28 nM; in experiment [3] (setting [9]) it was 0.7 nM; in experiment [3] (setting [10]), 1.2 nM. For the same molecule, the IC50 came to 1.6 nM in experiment [4] (setting [11]), 4.8 nM in experiment [4] (setting [12]), 72.8 nM in experiment [5] (setting [13]) and 2800 nM in experiment [5] (setting [14]).

Turning to `C[C@]1(O)CC[C@@H](Nc2cc(Nc3ccnc(-c4cnn(S(=O)(=O)C5CC5)c4)n3)ncc2C#Cc2cnn(C(F)(F)F)c2)CC1` [Example 105, (1s,4s)-4-((2-((2-(1-(Cyclopropylsulfonyl)-1H-pyrazol-4-yl)pyrimidin-4-yl)amino)-5-((1-(trifluoromethyl)-1H-pyrazol-4-yl)ethynyl)pyridin-4-yl)amino)-1-methylcyclohexan-1-ol], the IC50 is greater than 10000 nM in experiment [1] (IC50 WT (nM), 100 μM ATP); 2520 nM in experiment [1] (Km ATP, read-out: IC50 WT (nM) Km ATP); 64.2 nM in experiment [2] (setting [8]); 48.7 nM in experiment [2] (Km ATP, read-out: IC50 Del19/C797S (nM) Km ATP); 3.2 nM in experiment [3] (setting [10]); 2.3 nM in experiment [3] (Km ATP, read-out: IC50 Del19/T790M/C797S (nM) Km ATP). In addition, the IC50 was 6.5 nM in experiment [4] (setting [12]); 1.5 nM in experiment [4] (Km ATP, read-out: IC50 L858R/T790M/C797S (nM) Km ATP); 2200 nM in experiment [5] (setting [14]); 100 nM in experiment [5] (setting [15]).

With `CN1CCN(Cc2ccc(C#Cc3cnc(Nc4ccnc(-c5cnn(S(=O)(=O)C6CC6)c5)n4)cc3N3CCC(C)(CO)CC3)cn2)CC1` [Example 279, (1-(2-((2-(1-(Cyclopropylsulfonyl)-1H-pyrazol-4-yl)pyrimidin-4-yl)amino)-5-((6-((4-methylpiperazin-1-yl)methyl)pyridin-3-yl)ethynyl)pyridin-4-yl)-4-methylpiperidin-4-yl)methanol], the IC50 in experiment [1] (setting [6]) was 0.6 nM; in experiment [1] (IC50 WT (nM), 100 μM ATP), 111 nM; in experiment [2] (setting [7]), 0.2 nM; in experiment [2] (setting [8]) it was 0.6 nM; in experiment [3] (setting [9]), 0.6 nM; in experiment [3] (setting [10]), 0.7 nM. For the same molecule, the IC50 in experiment [4] (setting [11]) turned out to be 0.1 nM; in experiment [4] (setting [12]), 0.5 nM; in experiment [5] (setting [13]), 0.6 nM; in experiment [5] (setting [14]), 0.6 nM.

In the case of `CC1(CO)CCN(c2cc(Nc3ccnc(-c4cnn(S(=O)(=O)C5CC5)c4)n3)ncc2C#Cc2ccc(C(=O)N3CCC(O)CC3)cc2)CC1` [Example 446, (4-((6-((2-(1-(Cyclopropylsulfonyl)-1H-pyrazol-4-yl)pyrimidin-4-yl)amino)-4-(4-(hydroxymethyl)-4-methylpiperidin-1-yl)pyridin-3-yl)ethynyl)phenyl)(4-hydroxypiperidin-1-yl)methanone], the IC50 stood at 2670 nM in experiment [1] (IC50 WT (nM), 100 μM ATP); 1.3 nM in experiment [2] (setting [8]); 1.2 nM in experiment [3] (setting [10]); 1 nM in experiment [3] (setting [16]); 0.4 nM in experiment [4] (setting [12]); 0.2 nM in experiment [4] (setting [17]). Also, the IC50 in experiment [5] (setting [14]) came out at 18.9 nM.

In the case of `CC1(O)CCN(c2cc(Nc3ccnc(-c4cnn(S(=O)(=O)C5CC5)c4)n3)ncc2C#CC2CCO[C@H]2C(F)(F)F)CC1` (stereo partly drawn) [Example 417, 1-(2-((2-(1-(Cyclopropylsulfonyl)-1H-pyrazol-4-yl)pyrimidin-4-yl)amino)-5-(((2R)-2-(trifluoromethyl)tetrahydrofuran-3-yl)ethynyl)pyridin-4-yl)-4-methylpiperidin-4-ol], the IC50 in experiment [1] (IC50 WT (nM), 100 μM ATP) is greater than 10000 nM; in experiment [1] (setting [18]), 96.1 nM; in experiment [2] (setting [8]), 7.9 nM; in experiment [2] (setting [19]), 7 nM; in experiment [3] (setting [10]), 1.6 nM; in experiment [3] (setting [16]), 1.5 nM. Moreover, the IC50 in experiment [4] (setting [12]) worked out at 2.6 nM; in experiment [4] (setting [17]), 0.8 nM; in experiment [5] (setting [14]), 157 nM; in experiment [5] (setting [20]) it was 30.7 nM.

Consider `CN(C)CCC1CCN(c2cc(Nc3ccnc(-c4cnn(S(=O)(=O)C5CC5)c4)n3)ncc2C#Cc2cnn(C(F)(F)F)c2)CC1` [Example 335, 2-(1-(Cyclopropylsulfonyl)-1H-pyrazol-4-yl)-N-(4-(4-(2-(dimethylamino)ethyl)piperidin-1-yl)-5-((1-(trifluoromethyl)-1H-pyrazol-4-yl)ethynyl)pyridin-2-yl)pyrimidin-4-amine], for which the IC50 is 4970 nM in experiment [1] (IC50 WT (nM), 100 μM ATP); 9.2 nM in experiment [1] (setting [18]); 2.3 nM in experiment [2] (setting [8]); 2.1 nM in experiment [2] (setting [19]); 0.4 nM in experiment [3] (setting [10]); 0.4 nM in experiment [3] (setting [16]). Also, the IC50 in experiment [4] (setting [12]) turned out to be 0.4 nM; in experiment [4] (setting [17]) it was 0.2 nM; in experiment [5] (setting [14]) it was 53.4 nM; in experiment [5] (setting [20]) it was 4.3 nM.

Regarding `CC1(CO)CCN(c2cc(Nc3ccnc(-c4cnn(S(=O)(=O)C5CC5)c4)n3)ncc2C#CC2CC2)CC1` [Example 250, (1-(5-(Cyclopropylethynyl)-2-((2-(1-(cyclopropylsulfonyl)-1H-pyrazol-4-yl)pyrimidin-4-yl)amino)pyridin-4-yl)-4-methylpiperidin-4-yl)methanol], the IC50 in experiment [1] (setting [6]) is 15 nM; in experiment [1] (IC50 WT (nM), 100 μM ATP), greater than 10000 nM; in experiment [2] (setting [7]) it was 2 nM; in experiment [2] (setting [8]), 2.8 nM; in experiment [3] (setting [9]), 0.7 nM; in experiment [3] (setting [10]), 0.7 nM. Besides, the IC50 in experiment [4] (setting [11]) was determined as 0.4 nM; in experiment [4] (setting [12]), 0.9 nM; in experiment [5] (setting [13]), 6.6 nM; in experiment [5] (setting [14]) it was 74.7 nM.

For the molecule `Cn1cc(C#Cc2cnc(Nc3ccnc(-c4cnn(S(=O)(=O)C5CC5)c4)n3)cc2NCC(C)(C)CO)cn1` [Example 39, 3-((2-((2-(1-Cyclopropylsulfonylpyrazol-4-yl)pyrimidin-4-yl)amino)-5-(2-(1-methylpyrazol-4-yl)ethynyl)-4-pyridyl)amino)-2,2-dimethyl-propan-1-ol], the IC50 is greater than 10000 nM in experiment [1] (IC50 WT (nM), 100 μM ATP); 53.6 nM in experiment [2] (setting [8]); 2.6 nM in experiment [3] (setting [10]); 8.8 nM in experiment [4] (setting [12]); 203 nM in experiment [5] (setting [14]); 32.3 nM in experiment [5] (setting [15]).

In the case of `CC1(CO)CCN(c2cc(Nc3ccnc(-c4cnn(S(=O)(=O)C5CC5)c4)n3)ncc2C#Cc2cnn(CC3CCCOC3)c2)CC1` (stereo not drawn) [Example 241, (1-(2-((2-(1-(Cyclopropylsulfonyl)-1H-pyrazol-4-yl)pyrimidin-4-yl)amino)-5-((1-((tetrahydro-2H-pyran-3-yl)methyl)-1H-pyrazol-4-yl)ethynyl)pyridin-4-yl)-4-methylpiperidin-4-yl)methanol], the IC50 in experiment [1] (setting [6]) is 9.1 nM; in experiment [1] (IC50 WT (nM), 100 μM ATP), 4180 nM; in experiment [2] (setting [7]) it was 1.2 nM; in experiment [2] (setting [8]), 1.7 nM; in experiment [3] (setting [9]) it was 2.1 nM; in experiment [3] (setting [10]), 2.5 nM. In addition, the IC50 in experiment [4] (setting [11]) came out at 0.8 nM; in experiment [4] (setting [12]), 3.9 nM; in experiment [5] (setting [13]) it was 2.3 nM; in experiment [5] (setting [14]), 17.5 nM.

`C[C@H](Nc1cc(Nc2ccnc(-c3cnn(S(=O)(=O)C4CC4)c3)n2)ncc1C#Cc1cnn(C)c1)C(C)(C)O` [Example 5, (S)-3-((2-((2-(1-(Cyclopropylsulfonyl)-1H-pyrazol-4-yl)pyrimidin-4-yl)amino)-5-((1-methyl-1H-pyrazol-4-yl)ethynyl)pyridin-4-yl)amino)-2-methylbutan-2-ol]: the IC50 in experiment [1] (IC50 WT (nM), 100 μM ATP) was greater than 10000 nM; in experiment [2] (setting [8]) it was 404 nM; in experiment [3] (setting [10]) it was 3.8 nM; in experiment [4] (setting [12]) it was 44.3 nM; in experiment [5] (setting [14]) it was 418 nM.

On to `CN(C)CC1(O)CCN(c2cc(Nc3ccnc(-c4cnn(S(=O)(=O)C5CC5)c4)n3)ncc2C#Cc2cnn(C)c2)CC1` [Example 315, 1-(2-((2-(1-(Cyclopropylsulfonyl)-1H-pyrazol-4-yl)pyrimidin-4-yl)amino)-5-((1-methyl-1H-pyrazol-4-yl)ethynyl)pyridin-4-yl)-4-((dimethylamino)methyl)piperidin-4-ol], for which the IC50 in experiment [1] (IC50 WT (nM), 100 μM ATP) was greater than 10000 nM; in experiment [2] (setting [8]) it was 52.2 nM; in experiment [3] (setting [10]), 3.7 nM; in experiment [4] (setting [12]), 6.8 nM; in experiment [5] (setting [14]), 78.6 nM.

Source of the values: US11981658B2, “Substituted aminopyridine compounds as EGFR inhibitors” (YUHAN CORPORATION, priority 2021, dated 2024).
